Laboratory results reported in US20250093315A1, “MOLECULAR SENSORS, METHOD AND KIT FOR THE DETECTION AND QUANTIFICATION OF CARBON DIOXIDE” (ETH Zurich, priority 2022, published 2025).

Legend:
HeLa cells = assay: Cell imaging of CO2; format: cell-based; conditions: 5 μM for 10 minutes; ambient air or 5% CO2; imaged at different time points
Description: The selectivity of the compound (I4) was evaluated against common analytes in cells. HeLa cells were treated with compound (I4) [5 μM] for 10 minutes, followed by washing thrice to remove excess sensor. Then, as an exogenous CO2 model, the cells were incubated under ambient air or at 5% CO2 and imaged at different time points. […] In addition, time-dependent response of cells that were incubated under ambient conditions was attributed to basal levels of CO2 production by metabolic processes.

[1] = Reaction kinetics by fluorescence at varying concentrations of sensor or CO2; conditions: dependence for both (I1) and carbon dioxide
Text: The reaction kinetics were investigated with the same compounds of Formulae (I1) and (I1b) by measuring fluorescence at different time points using varying concentrations of either (I1) or carbon dioxide.

Compound | fluorescent signal in cells (HeLa cells) | reaction order [1]
CN(C)c1ccc2c(NCc3ccccc3N=P(c3ccccc3)(c3ccccc3)c3ccccc3)c3ccc(=[N+](C)C)cc-3oc2c1 [(I4)] | significant time-dependent fluorescent increase in the red channel and decrease in the green channel | –
CCN(CC)c1ccc2c(NCc3ccccc3N=P(c3ccccc3)(c3ccccc3)c3ccccc3)cc(=O)oc2c1 [Compound (I1)] | – | first-order dependence
